Among the data in patent US9527850B2, “Benzyl piperidine compounds as lysophosphatidic acid (LPA) receptor antagonist” (Merck Patent GmbH, priority 2011, dated 2016) are IC50 values, retold here.

Structures are written as SMILES. Some results are limits rather than exact numbers.

The target in the test is T1, LPA2 receptor (LPA2R) (Homo sapiens, UniProt Q9HBW0).
T1 construct: expressed in transfected cells; host or cells: U2OS
T1 sequence (Q9HBW0 whole entry): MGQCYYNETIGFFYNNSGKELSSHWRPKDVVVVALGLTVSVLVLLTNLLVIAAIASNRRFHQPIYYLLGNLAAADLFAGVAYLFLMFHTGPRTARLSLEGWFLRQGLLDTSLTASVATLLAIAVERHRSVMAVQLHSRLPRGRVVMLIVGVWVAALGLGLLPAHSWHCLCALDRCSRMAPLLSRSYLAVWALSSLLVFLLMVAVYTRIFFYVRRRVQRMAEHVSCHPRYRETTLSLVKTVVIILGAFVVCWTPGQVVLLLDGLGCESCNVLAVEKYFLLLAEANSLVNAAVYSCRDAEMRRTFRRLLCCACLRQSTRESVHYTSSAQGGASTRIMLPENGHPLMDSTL
Nature of the test: LPA2R-Calciumflux assay (intracellular calcium mobilisation, FLIPR). In kind it is cell-based. Conditions: U2OS cells recombinant expressing LPA2R; inhibition of LPA-induced Ca-flux; 10 concentrations 30 uM to 1 nM, 1% DMSO. On the technique in general: Calcium flux is commonly read through the fluorescence of an indicator in the cells.
As to `FC(F)(F)c1ccccc1CN1CCCCC1c1cc2ccccc2[nH]1` (stereo not drawn) [compound 16], the IC50 (commonly the midpoint of a concentration-inhibition curve) lay within 5 to 15 µM.

On to `N#Cc1ccc(CN2CCCCC2c2cc3c(F)ccc(F)c3[nH]2)cc1` (stereo not drawn) [compound 42, 4-[2-(4,7-Difluoro-1H-indol-2-yl)-piperidin-1-ylmethyl]-benzonitrile], for which the IC50 was 5 to 15 µM. In the case of `Cc1cc(C)cc(CN2CCCCC2c2cc3cc(F)ccc3[nH]2)c1` (stereo not drawn) [compound 84, 2-[1-(3,5-Dimethyl-benzyl)-piperidin-2-yl]-5-fluoro-1H-indole], the IC50 is less than 0.5 µM. The result for `Cc1ccc(CN2CCCC[C@@H]2c2cc3ccccc3[nH]2)cc1` [compound 143, 2-[(R)-1-(4-Methyl-benzyl)-piperidin-2-yl)-1H-indole] reads less than 0.5 µM; that for `Cc1ccc(CN2CCCCC2c2cc3cc(F)ccc3[nH]2)cc1` (stereo not drawn) [compound 108, 5-Fluoro2-[1-(4-methyl-benzyl)-piperidin-2-yl]-1H-indole], less than 0.5 µM; that for `COc1cccc(CN2CCCCC2c2cc3cc(C)ccc3[nH]2)c1` (stereo not drawn) [compound 71, 2-[1-(3-Methoxy-benzyl)-piperidin-2-yl]-5-methyl-1H-indole], 0.5 to 5 µM.

Consider `Cc1ccc(CN2CCCCC2c2cc3c(F)ccc(F)c3[nH]2)cc1C` (stereo not drawn) [compound 24, 2-[1-(3,4-Dimethyl-benzyl)-piperidin-2-yl]-4,7-difluoro-1H-indole], for which the 50% inhibitory concentration (IC50) lay within 0.5 to 5 µM. Regarding `Cn1nc(CN2CCCCC2c2cc3cc(F)ccc3[nH]2)c2ccccc21` (stereo not drawn) [compound 110, 3-[2-(5-Fluoro-1H-indol-2-yl)-piperidin-1-ylmethyl]-1-methyl-1H-indazole], the IC50 was less than 0.5 µM. Take `FC(F)(F)c1ccc(CN2CCCCC2c2cc3ccccc3[nH]2)cc1` (stereo not drawn) [compound 18]: the IC50 was 0.5 to 5 µM. On to `Cc1ccc(CN2C(C)CCCC2c2cc3cc(F)ccc3[nH]2)o1` (stereo not drawn) [compound 38, 5-Fluoro-2-[6-methyl-1-(5-methyl-furan-2-ylmethyl)-piperidin-2-yl]-1H-indole], for which the IC50 was less than 0.5 µM.

Regarding `Cc1ccc(CN2CCC(C)CC2c2cc3ccccc3[nH]2)cc1C` (stereo not drawn) [compound 79, 2-[1-(3,4-Dimethyl-benzyl)-4-methyl-piperidin-2-yl]-1H-indole], the 50% inhibitory concentration (IC50) lay in the range of 0.5 to 5 µM. For `COc1ccc(CN2CCCCC2c2nc3cc(F)ccc3[nH]2)cc1` (stereo not drawn) [compound 47], the IC50 fell in the range of 0.5 to 5 µM.

`Cc1cccc(CN2C(C)CCCC2c2cc3cc(F)ccc3[nH]2)c1` (stereo not drawn) [compound 30, 5-Fluoro-2-[6-methyl-1-(3-methyl-benzyl)-piperidin-2-yl]-1H-indole]: the IC50 is less than 0.5 µM. Consider `COc1ccc(CN2CCCCC2c2cc3cc(Cl)ccc3[nH]2)cc1` (stereo not drawn) [compound 73, 5-Chloro-2-[1-(4-methoxy-benzyl)-piperidin-2-yl]-1H-indole], for which the concentration for half-maximal inhibition (IC50) is less than 0.5 µM. The result for `CC1CCCC(c2cc3cc(F)ccc3[nH]2)N1Cc1ccccc1O` (stereo not drawn) [compound 29, 2-[2-(5-Fluoro-1H-indol-2-yl)-6-methyl-piperidin-1-ylmethyl]-phenol] reads 0.5 to 5 µM; that for `Cc1ccc(CN2CCCCC2c2nc3ccc(S(N)(=O)=O)cc3[nH]2)cc1C(F)(F)F` (stereo not drawn) [compound 117], 0.5 to 5 µM. `COc1ccc(CN2CCC(C)CC2c2cc3ccccc3[nH]2)cc1` (stereo not drawn) [compound 68, 2-[1-(4-Methoxy-benzyl)-4-methyl-piperidin-2-yl]-1H-indole]: the concentration for half-maximal inhibition (IC50) was 0.5 to 5 µM. Turning to `COc1cccc(CN2CCC(C)CC2c2cc3cc(Cl)ccc3[nH]2)c1` (stereo not drawn) [compound 74, 5-Chloro-2-[1-(3-methoxy-benzyl)-4-methyl-piperidin-2-yl]-1H-indole], the half-inhibitory concentration (IC50) lay in the range of 0.5 to 5 µM. `Cc1nc(CN2CCCCC2c2nc3cc(F)ccc3[nH]2)cs1` (stereo not drawn) [compound 123]: the half-maximal inhibitory concentration (IC50) lay in the range of 0.5 to 5 µM. In the case of `Fc1ccc2[nH]c(C3CCCCN3Cc3ccc(Cl)cc3Cl)cc2c1` (stereo not drawn) [compound 59, 2-[1-(2,4-Dichloro-benzyl)-piperidin-2-yl]-5-fluoro-1H-indole], the IC50 was in the range of 5 to 15 µM. For the molecule `Fc1ccc(CN2CCCCC2c2cc3cc(F)ccc3[nH]2)c(F)c1` (stereo not drawn) [compound 112, 2-[1-(2,4-Difluoro-benzyl)-piperidin-2-yl]-5-fluoro-1H-indole], the concentration for half-maximal inhibition (IC50) is less than 0.5 µM. Regarding `Cc1cccc(CN2CCCCC2c2nc3ccc(Br)cc3[nH]2)c1` (stereo not drawn) [compound 95, 6-Bromo-2-[1-(3-methyl-benzyl)-piperidin-2-yl]-1H-benzo-imidazole], the 50% inhibitory concentration (IC50) is less than 0.5 µM. The result for `Fc1ccc2[nH]c(C3CCCCN3Cc3csc(Cl)n3)nc2c1` (stereo not drawn) [compound 122, 2-[1-(2-Chloro-thiazol-4-ylmethyl)-piperidin-2-yl]-5-fluoro-1H-benzo-imidazole] reads 0.5 to 5 µM. For `Cc1cc(Cl)cc2nc(C3CCCCN3Cc3cccc(C(F)(F)F)c3)[nH]c12` (stereo not drawn) [compound 98], the IC50 was 0.5 to 5 µM. As for `CC(c1ccccc1)N1CCCCC1c1nc2cc(F)ccc2[nH]1` (stereo not drawn) [compound 101, 5-Fluoro-2-[1-(1-phenyl-ethyl)-piperidin-2-yl]-1H-benzo-imidazole], the half-inhibitory concentration (IC50) is 0.5 to 5 µM. On to `COc1ccc(CN2CCCCC2c2cc3ccccc3[nH]2)cc1` (stereo not drawn) [compound 1, 2-[1-(4-Methoxy-benzyl)-piperidin-2-yl]-1H-indole], for which the half-maximal inhibitory concentration (IC50) lay within 0.5 to 5 µM. Consider `Fc1ccc2[nH]c(C3CCCCN3CCc3ccccc3)nc2c1` (stereo not drawn) [compound 104, 5-Fluoro-2-(1-phenethyl-piperidin-2-yl)-1H-benzo-imidazole], for which the 50% inhibitory concentration (IC50) was in the range of 0.5 to 5 µM. As for `CC1(C)CCC(C)(C)c2cc(CN3CCCCC3c3nc4ccc(S(N)(=O)=O)cc4[nH]3)ccc21` (stereo not drawn) [compound 118, 2-[1-(5,5,8,8-Tetramethyl-5,6,7,8-tetrahydro-naphthalen-2-ylmethyl)-piperidin-2-yl]-3H-benzo-imidazole-5-sulfonic acid amide], the 50% inhibitory concentration (IC50) fell in the range of 0.5 to 5 µM. As to `Cc1ccc(CN2CCCCC2c2nc3cc(Cl)cc(C)c3[nH]2)cc1C` (stereo not drawn) [compound 105], the 50% inhibitory concentration (IC50) fell in the range of 0.5 to 5 µM. As for `NS(=O)(=O)c1ccc2nc(C3CCCCN3Cc3cccc(C(F)(F)F)c3)[nH]c2c1` (stereo not drawn) [compound 115], the IC50 was in the range of 0.5 to 5 µM.

For the molecule `Cc1cc2nc(C3CCCCN3Cc3cccc(C(F)(F)F)c3)[nH]c2cc1Cl` (stereo not drawn) [compound 126], the concentration for half-maximal inhibition (IC50) is less than 0.5 µM. Take `Cc1ccc2[nH]c(C3CCCCN3Cc3ccc(F)cc3)cc2c1` (stereo not drawn) [compound 70]: the IC50 lay within 0.5 to 5 µM. Consider `Fc1ccc(CCN2CCCCC2c2cc3cc(F)ccc3[nH]2)cc1` (stereo not drawn) [compound 111, 5-Fluoro-2-{1-[2-(4-fluoro-phenyl)-ethyl]-piperidin-2-yl}-1H-indole], for which the IC50 fell in the range of 0.5 to 5 µM. The figure for `Cc1ccc(CN2CCCC[C@@H]2c2nc3cc(Cl)cnc3[nH]2)cc1C` [compound 140, 6-Chloro-2-[(R)-1-(3,4-dimethyl-benzyl)-piperidin-2-yl]-3H-imidazo[4,5-b]pyridine] is 0.5 to 5 µM; for `N#Cc1cccc(CN2CCCCC2c2cc3cc(F)ccc3[nH]2)c1` (stereo not drawn) [compound 86, 3-[2-(5-Fluoro-1H-indol-2-yl)-piperidin-1-ylmethyl]-benzonitrile] it is 0.5 to 5 µM; for `COc1cccc(CN2CC(C)CCC2c2cc3cc(F)ccc3[nH]2)c1` (stereo not drawn) [compound 62, 5-Fluoro-2-[1-(3-methoxy-benzyl)-5-methyl-piperidin-2-yl]-1H-indole] it is 5 to 15 µM.

With `Cc1ccc(CN2CCCCC2c2nc3ccc(S(N)(=O)=O)cc3[nH]2)cc1C` (stereo not drawn) [compound 116, 2-[1-(3,4-Dimethyl-benzyl)-piperidin-2-yl]-3H-benzo-imidazole-5-sulfonic acid amide], the half-inhibitory concentration (IC50) was less than 0.5 µM.

As for `Fc1ccc2[nH]c(C3CCCCN3Cc3ccc(Cl)c(Cl)c3)cc2c1` (stereo not drawn) [compound 60, 2-[1-(3,4-Dichlorobenzyl)-piperidin-2-yl]-5-fluoro-1H-indole], the IC50 was in the range of 5 to 15 µM. The figure for `Cc1ccc(CN2CCCC[C@@H]2c2cc3cc(F)ccc3[nH]2)cc1C` [compound 138, 2-[(R)-1-(3,4-Dimethyl-benzyl)-piperidin-2-yl]-5-fluoro-1H-indole] is less than 0.5 µM.
